We go through 11 molecules from patent US11691962B2 (eXIthera Pharmaceuticals, Inc., priority 2018, dated 2023).

The nature of data set [1]: Determination of bioavailability in a dog. The format is in vivo. The note with it: plasma, male beagle dogs, IV bolus 1 mg/kg vs oral gavage 5 mg/kg, AUC comparison. As to the method: The following protocol was used to estimate the bioavailability of test compounds in a dog. Test compounds were formulated in vehicles compatible with intravenous and oral dosing. Test compounds were administered to male beagle dogs via an intravenous bolus at 1 mg/kg (1 mg/mL at a dose volume of 1 mL/kg) or via oral gavage at 5 mg/kg (1 mg/mL at a dose volume of 5 mL/kg). Blood samples were collected via the contralateral (to intravenous bolus) jugular vein or via other accessible vein, at various timepoints following administration out to 24 hours post dose. Plasma samples (EDTA) were obtained by centrifugation (2200×g for 10 minutes at 5° C.) and stored frozen ([…]) until analyzed for parent compound via LC/MS/MS. Pharmacokinetic parameters were estimated from the plasma concentration time data by standard non-compartmental methods utilizing standard analysis software. By comparing the area under the curve (AUC) for IV and PO administration estimates of oral bioavailability were determined.

The subject of the next data set is beagle dog hepatocytes. As to the kind of experiment: Metabolic stability in dog hepatocytes. It is filed as in vitro ADME. The note with it: 2 μM compound. In short, it runs like this:
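Pooled cryopreserved beagle hepatocytes at 500,000 cells/mL in Krebs-Henseleit buffer with 2 μM compound, 37 °C, 5% CO2, sampled out to 180 min. Acetonitrile-quenched samples analysed by LC-MS/MS; percent remaining from peak area versus time zero.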

Another data set relates to Caco-2 cells. The experiment in a line: Caco-2 cell permeability assay. The note with it: Papp, 10 μM, 37° C. The format is in vitro ADME, human. In short, it runs like this:
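Caco-2 monolayers (days 21-25 post-seeding) received 10 μM compound in HBSS-MES pH 6.5 or HBSS-HEPES pH 7.4 (1% DMSO) at 37 °C, for 60 min A-B or 40 min B-A. Donor and receiver samples were quantified by HPLC-MS/MS (SRM), and Papp and recovery were calculated.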

Another data set has as its system human plasma protein. The experiment in a line: Plasma protein binding by equilibrium dialysis. The format is in vitro ADME. The note with it: pooled human plasma, 10 μM, 4 hours at 37° C. The gist of the method:
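Pooled mixed-gender human plasma spiked with compound at 10 μM was dialysed against PBS pH 7.4 for 4 h at 37°C. Both compartments were quantified by HPLC-MS/MS, and % bound was calculated from plasma vs buffer peak areas.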
On the technique in general: In equilibrium dialysis only unbound substance equilibrates across the membrane.

What is called bioavailability is dose-corrected exposure relative to a reference, in per cent. The low end stands for little systemic uptake, the high end for much systemic uptake. As to `CC[C@@H](NC(=O)N1C(=O)[C@H](Cc2ccnc(N)c2)[C@H]1C(=O)N(C)c1ccn(C)n1)c1ccccc1` [Compound 1-3, (2S,3R)-3-((2-aminopyridin-4-yl)methyl)-N2-(1-methyl-1H-pyrazol-3-yl)-N1-((R)-1-phenylpropyl)-N2-methyl-4-oxoazetidine-1,2-dicarboxamide], the bioavailability in data set [1] is > 30%.

Turning to `CC[C@@H](NC(=O)N1C(=O)[C@H](Cc2ccnc(N)c2)[C@H]1C(=O)N(C)c1ccnn1C)c1cccc(Cl)c1` [Compound 1-4, (2S,3R)-3-((2-aminopyridin-4-yl)methyl)-N2-(1-methyl-1H-pyrazol-5-yl)-N1-((R)-1-(3-chlorophenyl)propyl)-N2-methyl-4-oxoazetidine-1,2-dicarboxamide], in data set [1], the bioavailability was > 30%. The same measure, in the same setting: with `CC[C@@H](NC(=O)N1C(=O)[C@H](Cc2ccnc(N)c2)[C@H]1C(=O)N(C)c1cccs1)c1ccccc1` [Compound 1-10, (2S,3R)-3-((2-aminopyridin-4-yl)methyl)-N2-(thiophen-2-yl)-N1-((R)-1-phenylpropyl)-N2-methyl-4-oxoazetidine-1,2-dicarboxamide] the figure was 11 to 30%; with `CC[C@@H](NC(=O)N1C(=O)[C@H](Cc2ccnc(N)c2)[C@H]1C(=O)N(C)c1nccn1C)c1ccccc1` [Compound 1-13, (2S,3R)-3-((2-aminopyridin-4-yl)methyl)-N2-(1-methyl-1H-imidazol-2-yl)-N1-((R)-1-phenylpropyl)-N2-methyl-4-oxoazetidine-1,2-dicarboxamide], > 30%; with `CC[C@@H](NC(=O)N1C(=O)[C@H](Cc2cc(C)nc(NC)c2)[C@H]1C(=O)N(C)c1nccn1C)c1ccccc1` [Compound 1-45, (2S,3R)-3-((2-methylamino-6-methylpyridin-4-yl)methyl)-N2-(1-methyl-1H-imidazol-2-yl)-N1-((R)-1-phenylpropyl)-N2-methyl-4-oxoazetidine-1,2-dicarboxamide], 11 to 30%.

With `CC[C@@H](NC(=O)N1C(=O)[C@H](Cc2cc(C)nc(N)c2)[C@H]1C(=O)N(C)c1nccn1C)c1ccccc1` [Compound 1-51, (2S,3R)-3-((2-amino-6-methylpyridin-4-yl)methyl)-N2-(1-methyl-1H-imidazol-2-yl)-N1-((R)-1-phenylpropyl)-N2-methyl-4-oxoazetidine-1,2-dicarboxamide], the bioavailability in data set [1] is > 30%. Take `CC[C@@H](NC(=O)N1C(=O)[C@H](Cc2ccnc(N)c2)[C@H]1C(=O)N(C)c1nccn1C)c1ccc(C)nc1` [Compound 1-81, (2S,3R)-3-((2-aminopyridin-4-yl)methyl)-N2-(1-methyl-1H-imidazol-2-yl)-N1-((R)-1-(6-methylpyridin-3-yl)propyl)-N2-methyl-4-oxoazetidine-1,2-dicarboxamide]: in data set [1], the bioavailability was < 10%.

With `CC[C@@H](NC(=O)N1C(=O)[C@H](Cc2cc(C)nc(N)c2)[C@H]1C(=O)N(C)c1ccn(C)n1)c1cccc(Cl)c1` [Compound 1-89, (2S,3R)-3-((2-amino-6-methylpyridin-4-yl)methyl)-N2-(1-methyl-1H-pyrazol-3-yl)-N1-((R)-1-(3-chlorophenyl)propyl)-N2-methyl-4-oxoazetidine-1,2-dicarboxamide], in data set [1], the bioavailability was > 30%. On the same count and under the same terms, the same measure for `CC[C@@H](NC(=O)N1C(=O)[C@H](Cc2ccnc(N)c2)[C@H]1C(=O)N(C)c1ccn(C)n1)c1cccc(Cl)c1` [Compound 1-91, (2S,3R)-3-((2-aminopyridin-4-yl)methyl)-N2-(1-methyl-1H-pyrazol-3-yl)-N1-((R)-1-(3-chlorophenyl)propyl)-N2-methyl-4-oxoazetidine-1,2-dicarboxamide]: > 30%; for `CC[C@@H](NC(=O)N1C(=O)[C@H](Cc2ccnc(N)c2)[C@H]1C(=O)N(C)c1ccnn1C)c1ccccc1` [Compound 1-92, (2S,3R)-3-((2-aminopyridin-4-yl)methyl)-N2-(1-methyl 1H-pyrazol-5-yl)-N1-((R)-1-phenylpropyl)-N2-methyl-4-oxoazetidine-1,2-dicarboxamide]: > 30%. “(2S,3R)-3-((2-amino-6-methylpyridin-4-yl)methyl)-N2-(1-methyl-1H-imidazol-2-yl)-N1-((R)-1-(3-fluorophenyl)propyl)-N2-methyl-4-oxoazetidine-1,2-dicarboxamide [Compound 1-120]”: the “Dog Hepatocyte Stability (t1/2)” value in the data set on beagle dog hepatocytes is given as “N (“N” indicates > 240 min)”. Moreover, in the data set with Caco-2 cells (apical to basolateral, 60 min), the “Caco-2 Permeability (A-B)” value is on record as “P (“P” indicates < 10 × 10^−6 cm/s)”. Further, the “Caco-2 Permeability (B-A)” value in the data set on Caco-2 cells (basolateral to apical, 40 min) is recorded as “Q (“Q” indicates 11-30 × 10^−6 cm/s)”. Further, the “PPB (%)” value with human plasma protein was “Z (“Z” indicates 50-90%)”.
